Patent US20040037775A1, “Leukocyte internalized peptide-drug conjugates” (priority 2000, published 2004)
Where two headings read alike, the source gives them in different places. Starred links: 1 amine or outer side, 2 acyl side, 3 side chain; linkers in the order of their positions; H or OH if unused. Positions of bridges follow the written chain, without caps; N, C: chain ends. Non-standard residues stand in square brackets, D forms with d. Residues, ends and D or L forms follow the SMILES beside them. *: point of attachment. DAMPA = CN(Cc1cnc2nc(N)nc(N)c2n1)c1ccc(C(=O)*)cc1; γGlu = O=C(O)[C@H](CCC(=O)[*:2])N[*:1]; Pen = CC(C)(S)[C@H](N)C(=O)O

Legend:
[1] = system: dihydrofolate reductase enzyme (DHFR); assay: DHFR inhibition assay (spectrophotometric NADPH loss, Dixon plots); type: biochemical; conditions: for Ymax: from Dixon plots
Protocol: Into a 2.0 mL cuvette, a 1.0 mL solution of 0.11 mM β-NADPH and 33 μL of 2.3 mM DHFA were aliquoted and allowed to equilibrate. […] To begin the assay, 33 μL of DHFR (0.12-0.25 unit/mL with 0.1% BSA) was added to the reaction mixture. The absorbance of the reaction mixture was then recorded continuously for 5 min at 340 nm and the enzyme activity was determined by the rate of NADPH loss. Enzyme activity was determined for three different fixed concentrations of substrate (0.19, 1.9 and 10.0 mM DHFA).

Molt-3 T-cells = assay: cells; type: cell-based, human
Protocol: (§1) The cytotoxicity of MTX-peptide conjugates was evaluated in different cell lines, lincluding Molt-3 and L1210 T-cells, and KB epithelial cells. […] After 72 h of growth, the relative numbers of viable cells were determined according to the manufacture's protocols for measuring cytotoxicity using a Dojindo Cytotoxicity Assay Cell counting Kit-8 (CCK-8). To measure the cell viability, 10 μL of CCK-8 was added to each well and the plate was incubated for 4 h. After incubation, the absorbance at 450 nm was measured using a UV plate reader. Cell growth in the presence of different drug concentrations was calculated relative to the value obtained in the absence of the drug. […] Serial dilutions of compounds were prepared in un-supplemented medium, and 110 μL of drug solution was aliquoted in duplicate into 900 μL cell suspensions. Control flasks were treated with 110 μL of un-supplemented medium. Cells were incubated under standard conditions for 48 h, sufficient to allow control cells to divide approximately four times. Growth inhibition was determined by counting the cells on a Z2 model Coulter Counter (Coulter Electronics Ltd, Luton, Beds, UK). The IC50 values were calculated using Graphpad Prism software (Graphpad Software, San Diego, Calif.). KB MTT Assay: KB cells were seeded in Falcons® 96 well plates (Becton-Dickinson Labware Europe, France) at a density of 1,500 cells/well in a volume of 0.18 mL culture medium and incubated under standard culture conditions for 24 h after seeding to allow entry into the exponential phase of cell growth. […] In each assay condition, control cells were treated with 20 μL of un-supplemented medium instead of drug. Cells were incubated for 96 h to allow control cells to divide approximately four times before cell viability was determined by MTT assay.

[2] = system: L1210 mouse leukemia cells; assay: cells; type: cell-based
Protocol: as §1

KB epithelial cells = assay: KB MTT assay (96 h); type: cell-based, human
Protocol: Human KB epithelial l cells: The human KB epithelial cell line was a gift from Dr Gerrit Jansen (University Free Hospital, Amsterdam, Netherlands) and was developed to overexpress the membrane folate binding protein (mFBP). Cells were cultured in RPMI 1640 medium without folic acid and supplemented with 10% heat inactivated dialyzed FCS (50 mL volume), 0.2 mL of 50 μg/mL gentamicin, 1 mL of 50 μg/mL amphotericin B, and 5 mL of 200 mM L-glutamine. The folate source, 20 nM (R,S)-LV, was added to supply cells with adequate growth conditions.
The cytotoxicity of MTX-peptide conjugates was evaluated in different cell lines, lincluding Molt-3 and L1210 T-cells, and KB epithelial cells. […] After 72 h of growth, the relative numbers of viable cells were determined according to the manufacture's protocols for measuring cytotoxicity using a Dojindo Cytotoxicity Assay Cell counting Kit-8 (CCK-8). To measure the cell viability, 10 μL of CCK-8 was added to each well and the plate was incubated for 4 h. After incubation, the absorbance at 450 nm was measured using a UV plate reader. Cell growth in the presence of different drug concentrations was calculated relative to the value obtained in the absence of the drug. […] Growth inhibition was determined by counting the cells on a Z2 model Coulter Counter (Coulter Electronics Ltd, Luton, Beds, UK). The IC50 values were calculated using Graphpad Prism software (Graphpad Software, San Diego, Calif.). […] Cells were incubated for 96 h to allow control cells to divide approximately four times before cell viability was determined by MTT assay.
The number of viable cells after a 96-h incubation was determined by assessing their ability to reduce MTT ([…]). […] The absorbance of the solution in each well was measured at 540 nm on a MCC/340 model Titertak Multiscan® plate reader (Labsystems/Flow Laboratories, Oxfordshire, UK). The results were analyzed using Ascent Research software v.2.1 (Labsystems, UK).

L1210-1565 cells = assay: cell cycle analysis in L1210-1565 cells (PI staining, flow cytometry); type: cell-based, mouse; conditions: 1 μM
Protocol: The cell pellets were resuspended and fixed in 2.5 mL of ice-cold 70% ethanol. These pellets were stored at 4° C. before analysis using flow cytometry.
PI staining of fixed cell pellets for cell cycle analysis: One day prior to analysis, cells were centrifuged at 450×g (2500 rpm) for 5 min at room temperature and the pellets re-suspended in 0.8 mL PBS followed by addition of 0.1 mL each of 1 mg/mL ribonuclease A (RNase A; Sigma) and 0.4 mg/mL PI (Sigma). RNA digestion by RNase A is required to avoid the intercalation of PI into the double-stranded regions of this nucleic acid, which interfers with the measurement of DNA. After a 30 min incubation at 37° C., samples were wrapped in aluminum foil and stored at 4° C. overnight. Cell cycle analysis was performed using a Coulter EPICS Elite ESP (Beckman Coulter, Buckinghamshire, UK) equipped with an argon-ion laser tuned to 488 nm and red fluorescence collected at 630 nm. DNA histograms were produced and analyzed using the Winmidi software package (v.2.8, written by J.Trotter, University of Cardiff, UK).

IL-6 production = IL-6 production in TNF-α stimulated HCAEC monolayers; type: cell-based; conditions: 0.001-100 μM, 24 h
Protocol: The cell monolayers were cultured in vitro with the test compounds (0.001 to 100 μM) in the presence of TNF-α for 24 h. Results are expressed as the percentage of cytokine relative to the positive control or non-treated monolayers (the baseline 100% cytokine production. The control levels (mean±SE) were as follows: IL-6: 3.4±0.17 ng/mL, IL-8: 199.5±9.13 ng/mL.
It is well known that some anti-inflammatory agents can modulate the secretion of inflammatory cytokines. […] MTX-peptide(s) only begins to effectively reduce the IL-8 production at ≧0.1 μM. At ≦1 μM, neither cLAB.L nor cLBE.L affected the IL-8 production (FIG. 8B).

[3] = system: collagen induced rheumatoid arthritis (CIA); assay: collagen induced rheumatoid arthritis (CIA) animal model; type: in vivo, mice; conditions: for mice showing signs of joint eburnation: histopathologic examination; for Total joint damage (TJD): sum of histopathology scores (0 to 3) for each limb; for arthritis index score for the limb: i.v. once daily after day 35
Protocol: […] received intravenous injections of saline while another treatment group received MTX injections (molar equivalent dosage to conjugate) for five days. Clinical arthritis symptoms were evaluated weekly for up to sixteen weeks. Arthritis development was evaluated by several parameters, including the percent of animals acquiring arthritis, arthritis index (AI) score of limbs, changes in paw-volumes and histologic score for the joint.
Mice injected with collagen adjuvant developed pronounced inflammation of the joints, as evidenced by swelling and erythema. […] Total joint damage (TJD) was calculated as the sum the scores for each limb assigned by the pathologist on a scale of 0 to 3 (where 0 is no change and 3 is gross histological change).

LFA-1 = biological target: T1, LFA-1 (Homo sapiens, UniProt P20701); assay: binding to LFA-1 on Molt-3 T-cells (reduction of FITC anti-CD11a antibody binding, flow cytometry); conditions: 1, 10 or 100 μM, 45 min, 4° C.
T1 construct: endogenous in cells
Protocol: The binding of MTX-peptide conjugates to LFA-1 in response to LFA-1 activation was evaluated. As necessary, cells were activated with 10% v/v phorbol 12-myristate-13-acetate (PMA) containing medium to a final concentration of 2 μM PMA and incubated for 16 h. […] T-cells were centrifuged for 3 min at 1800 rpm, the supernatant was decanted by flicking off excess liquid, and the cells were re-suspended in 500 μL of PBS. The cells were then re-centrifuged, supernatant was removed, and cells were re-suspended again in 150 μL of PBS/BSA 1%. Next, 50 μL of an FITC-labeled anti-CD11a antibody (clone 38, 10 μg/L) was added and incubated for 45 min at 4° C. followed by washing. After the 45 min of incubation with FITC-labeled antibody, cell samples were transferred to Eppendorf tubes and centrifuged at 3000 g for 3 min. The supernatant was decanted, and the pellet was washed twice with 10 mM HEPES/PBS. The cells were then fixed with ice-cold 2% w/v paraformaldehyde/PBS for 20 min. Samples were analyzed using a Becton-Dickinson FACScan flow cytometer with 3.2.1 fl software for data analysis and acquisition.

Thymidine synthase (TS) = biological target: T2, Thymidine synthase (TS) (Mus musculus, UniProt P07607); type: cell-based
T2 construct: endogenous in cells; host or cells: L1210-1565 mouse leukemia cells
T2 sequence (P07607 whole entry): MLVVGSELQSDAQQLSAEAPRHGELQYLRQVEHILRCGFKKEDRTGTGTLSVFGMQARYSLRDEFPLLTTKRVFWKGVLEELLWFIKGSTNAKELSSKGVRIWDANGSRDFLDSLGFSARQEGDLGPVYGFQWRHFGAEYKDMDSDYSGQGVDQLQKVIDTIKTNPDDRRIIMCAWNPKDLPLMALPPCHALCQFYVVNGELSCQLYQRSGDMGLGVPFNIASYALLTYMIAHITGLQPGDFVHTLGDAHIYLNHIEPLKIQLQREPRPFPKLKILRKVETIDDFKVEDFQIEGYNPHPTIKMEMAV
Protocol: An equivalent amount of unsupplemented medium was added to control flasks. On the day of each experiment, a fresh solution of unlabelled deoxyuridine (dUrd) was prepared in deionized H2O (dH2O) and was added to a stock solution of [5-^3H]-dUrd (22 Ci/mmole) to give a concentration of 300 μM and a specific activity of 3.3 Ci/mmole (˜7260 dpm/pmole).
To begin the assay, the 300 μM [5-^3H]-dUrd stock solution was diluted ten fold in deionized H2O and 50 μL of this solution was added to each culture flask to give a final concentration of 0.03 μM. The rate of ^3H2O formation was measured over a 1 h period (20, 40 and 60 min) by removing a 3×0.4 mL aliquot of the cells in culture medium and mixing it with 0.4 mL of ice-cold 1.0 M perchloric acid (PCA; Sigma) in microfuge tubes. […] For each time point, radioactivity was determined by counting each vial on the tritium channel of a Tri-Carb 2000CA Model Liquid Scintillation Analyzer (Canberra Packard, Pangbourne, Berkshire, UK). Background radioactivity was assessed by cooling a flask of untreated cells on ice before the start of each experiment and adding 50 mL of the [5-^3H]-dUrd solution. Aliquots of 3×0.4 mL aliquots of cells in culture medium were added to 1.0 M PCA-containing microfuge tubes and the rate of ^3H2O release was analyzed as described above. […]

T1 sequence (P20701 26-1170): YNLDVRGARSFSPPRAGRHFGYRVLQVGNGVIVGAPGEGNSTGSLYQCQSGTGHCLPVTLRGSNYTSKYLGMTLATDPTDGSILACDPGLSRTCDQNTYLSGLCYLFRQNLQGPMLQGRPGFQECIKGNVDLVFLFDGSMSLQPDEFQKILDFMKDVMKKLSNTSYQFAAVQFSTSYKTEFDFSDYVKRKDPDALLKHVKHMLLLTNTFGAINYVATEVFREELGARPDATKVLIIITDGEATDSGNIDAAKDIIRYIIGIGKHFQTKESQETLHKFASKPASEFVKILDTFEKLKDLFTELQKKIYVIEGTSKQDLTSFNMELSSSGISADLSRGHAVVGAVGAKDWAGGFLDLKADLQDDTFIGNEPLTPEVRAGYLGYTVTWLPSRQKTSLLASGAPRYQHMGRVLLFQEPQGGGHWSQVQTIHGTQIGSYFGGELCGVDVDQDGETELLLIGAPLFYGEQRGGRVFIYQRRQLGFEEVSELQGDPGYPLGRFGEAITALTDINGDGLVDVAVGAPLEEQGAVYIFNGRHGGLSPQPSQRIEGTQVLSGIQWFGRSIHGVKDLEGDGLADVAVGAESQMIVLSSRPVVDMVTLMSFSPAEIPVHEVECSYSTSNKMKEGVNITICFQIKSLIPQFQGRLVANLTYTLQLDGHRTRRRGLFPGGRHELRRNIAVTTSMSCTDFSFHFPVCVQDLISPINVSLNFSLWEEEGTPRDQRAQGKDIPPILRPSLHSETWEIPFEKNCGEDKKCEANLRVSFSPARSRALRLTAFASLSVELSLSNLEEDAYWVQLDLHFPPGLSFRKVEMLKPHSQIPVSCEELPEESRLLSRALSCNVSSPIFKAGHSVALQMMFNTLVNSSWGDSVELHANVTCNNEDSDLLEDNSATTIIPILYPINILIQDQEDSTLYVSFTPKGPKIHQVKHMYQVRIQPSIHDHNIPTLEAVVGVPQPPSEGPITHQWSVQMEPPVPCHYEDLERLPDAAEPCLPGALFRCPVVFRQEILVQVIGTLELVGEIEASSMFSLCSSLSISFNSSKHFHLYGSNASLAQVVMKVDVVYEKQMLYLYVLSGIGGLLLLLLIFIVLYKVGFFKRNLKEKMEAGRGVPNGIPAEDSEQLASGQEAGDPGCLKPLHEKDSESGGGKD
T1 sequence (P05107 23-769 partner): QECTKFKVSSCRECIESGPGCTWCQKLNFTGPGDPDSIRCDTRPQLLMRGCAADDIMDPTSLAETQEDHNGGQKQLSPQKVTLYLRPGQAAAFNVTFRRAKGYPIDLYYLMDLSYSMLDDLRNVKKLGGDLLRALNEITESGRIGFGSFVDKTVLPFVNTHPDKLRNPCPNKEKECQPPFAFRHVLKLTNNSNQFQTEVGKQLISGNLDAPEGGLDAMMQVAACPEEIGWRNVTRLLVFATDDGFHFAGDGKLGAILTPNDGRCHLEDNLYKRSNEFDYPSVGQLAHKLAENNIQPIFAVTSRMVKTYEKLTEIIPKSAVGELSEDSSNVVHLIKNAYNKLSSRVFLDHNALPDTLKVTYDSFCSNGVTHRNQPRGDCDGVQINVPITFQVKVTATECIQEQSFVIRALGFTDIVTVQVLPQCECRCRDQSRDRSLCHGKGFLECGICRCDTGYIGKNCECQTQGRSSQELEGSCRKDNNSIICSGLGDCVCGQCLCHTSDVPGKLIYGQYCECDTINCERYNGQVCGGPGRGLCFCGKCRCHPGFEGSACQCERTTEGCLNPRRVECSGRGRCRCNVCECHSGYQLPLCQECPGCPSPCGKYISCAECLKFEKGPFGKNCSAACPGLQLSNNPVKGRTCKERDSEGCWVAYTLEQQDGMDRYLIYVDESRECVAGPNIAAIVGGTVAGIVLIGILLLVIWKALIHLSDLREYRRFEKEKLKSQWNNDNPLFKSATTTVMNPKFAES

Compound | Ymax [1] | IC50 (Molt-3 T-cells; Homo sapiens, MOLT-3, 72 h, read-out: IC50 Molt-3 T-cells) [nM] | IC50 ([2]; Mus musculus, L1210, 48 h, read-out: IC50 L1210 mouse leukemia cells) [nM] | IC50 (KB epithelial cells; Homo sapiens, Epithelial cell) [nM] | time of treatment after which arrest of cells in S phase was seen (L1210-1565 cells) [h] | block of IL-6 production (IL-6 production) | mice showing signs of joint eburnation [3] [%] | Total joint damage (TJD) [3] | Km relative to that of MTX [1] [fold] | IC50 (Molt-3 T-cells; 72 h) [nM] | IC50 ([2]; 48 h) [nM] | IC50 (KB epithelial cells) [nM] | binding to the LFA-1 receptor (LFA-1) | ability to inhibit TS after wash-out (Thymidine synthase (TS)) | inhibition of 3H2O production by TS, continuous exposure (Thymidine synthase (TS); 3 μM, 4 h incubation) | arthritis index score for the limb ([3]; week 8) | arthritis index score for the limb ([3]; week 12)
CN(Cc1cnc2nc(N)nc(N)c2n1)c1ccc(C(=O)N[C@@H](CCC(=O)O)C(=O)O)cc1 [MTX, methotrexate, reference compound] | 4.30 ± 0.42 × 10^−4 | 61 ± 20 | 14 ± 4 | 27 | 24 | partly block the production of IL-6 | 44 | 7.4±2.5 | – | – | – | – | – | – | – | – | –
CC(C)C[C@@H]1NC(=O)[C@H](C(C)C)NC(=O)[C@H](CO)NC(=O)CNC(=O)CNC(=O)[C@H](CCCNC(=N)N)NC(=O)[C@@H]2CCCN2C(=O)[C@@H](NC(=O)CC[C@H](NC(=O)c2ccc(N(C)Cc3cnc4nc(N)nc(N)c4n3)cc2)C(=O)O)C(C)(C)SSC[C@@H](C(=O)O)NC(=O)CNC(=O)[C@H]([C@@H](C)O)NC(=O)[C@H](C(C)C)NC1=O [MTX-cIBR] ({DAMPA-γGlu}-[Pen]PRGGSVLVTGC-OH; disulfide 1-12) | 4.10 ± 0.18 × 10^−4 | – | – | – | 36 | – | 10 | 4.4±2.1 | ~15 | 2750 ± 800 | 5500 ± 2000 | > 10000 | specific to the LFA-1 receptor | retained more activity than the linear conjugate | inhibited to a similar degree | two | zero
